Measurements taken from patent US7258999B2, “PTH responsive gene” (Wyeth, priority 2002, dated 2007).

Columns and labels:
Assay type in all cases: in vivo
PAIGB mRNA = test: In situ hybridization of PAIGB mRNA in mouse calvariae; details: Swiss Webster mice, 100 μg/kg/day sc, 30 days
Method: In situ analysis of PAIGB mRNA expression can be assessed in various animal species including human bone biopsy samples or from mouse, rat, dog bone samples etc., that have been treated with bone forming agents. Swiss Webster mice that have been treated with 100 μg/kg/day PTH 1-34 subcutaneously or 30 days. Mouse calvariae were gently dissected and fixed in 4% paraformaldehyde. Following fixation, the bones were decalcified in TBD-2 decalcifying agent (Shandon Lipshaw, Pittsburgh, Pa.) for 7-8 hrs then dehydrated in graded alcohol. The calvariae was subsequently bisected perpendicular to the sagittal suture through the central portion of the parietal bones parallel to the lambdoidal and coronal sutures and embedded in paraffin (femur and tibia samples are embedded longitudinally in paraffin). Four to six 5 μm-thick representative, non-consecutive step sections were cut for further analysis. Selected sections were stained with hematoxylin and eosin (Shandon Lipshaw, Pittsburgh, Pa.) and adjacent section were used for in situ hybridization. […] The expression of mRNA are evaluated using a Nikon microscope with either bright or dark field.

PAIGB expression [1] = test: Real time PCR of PAIGB expression in rat tibia
Method: RNA isolation was performed on bone as well as from different cell lines used during experimentation. RNA was isolated from rat tibiae as follows. Following euthanasia by CO2 asphyxiation tibiae were dissected free of soft tissue as rapidly as possible with autoclaved instruments, wiped with autoclaved gauze soaked in ethanol and the epiphysis broken off at the proximal growth plate by hand and discarded. The tibia was then cut transversely with bone cutters just distal to the proximal growth plate and just proximal to the distal tibia-fibula junction to expose the trabecular bone and the bone marrow. The trabecular bone and marrow cavity was flushed with ice cold sterile PBS using a Lancer liquid transfer pipette (Oxford Labware, St. Louis, Mo.) to remove the marrow and the cleaned bone placed in liquid nitrogen.
Applicants performed multiplex real time PCR (TaqMan) analysis on previously DNAsed samples using gene specific probe and primers and 18S ribosomal RNA probe and primer sets purchased from Applied Biosystem. (Foster City, Calif.) The samples were DNAsed according to the protocol provided by Ambion (DNA-free kit). TaqMan probe and primers for PAIGB was identify using Primer Express computer program. The sequence for rat PAIGB TaqMan probe was 6FAM-5′[…] (SEQ ID NO: 16) forward and reverse primers were 5′[…] 3′ (SEQ ID NO:17) and 5′ […] 3′ (SEQ ID NO:18) respectively. The final concentrations for probes were 500 nM and 40 nM for PAIGB and 18S ribosomal RNA or GAPDH respectively. The concentrations of the primers were 500 nM for PAIGB forward and reversed primers while 18S primers were 10 and 20 nM for forward and reversed primer respectively or 40 nM for GAPDH primers. Standards for rat samples were made from rat tibia or brain RNA in the range of 250 ng to 0.1 ng, while standards for mouse specific TaqMan were made from mouse brain RNA and human standards from human brain RNA (Clonetech, Palo Alto, Calif.) spanning the same range of concentration. Primers and probes for mouse PAIGB were: forward 5′ […] 3′ (SEQ ID NO:19), reverse, 5′ […] 3′ (SEQ ID NO:20) anti-sense and probe 5′ 6FAM-[…] (SEQ ID NO:21). Primers and probes for human PAIGB were: forward 5′ […] 3′ (SEQ ID NO:22), reverse 5′ […] 3′(SEQ ID NO:23), and PROBE 5′ 6FAM-[…] 3′(SEQ ID NO: 24). The Taq-man analysis was done using ABI 7700 Sequence Detector under following conditions: 30 min at 48° C., 10 min at 95° C. and 40 cycles of 15 sec at 95° C. and 60 sec at 60° C. Analysis of real-time PCR analysis was performed using (Sequence Detector, Macintosh) program.
The initial experiments measured the expression of PAIGB in the rat tibia after 8 days of treatment. In order to examine the time course of PTH action on PAIGB expression, experiments were performed on rats treated with intermittent PTH injections (40 μg/kg body weight) and tibias were collected for RNA isolation as well as evaluation in BMD changes. Time points of sample collection were 6 hours, 2 days, 4 days and 8 days after intermittent PTH treatment. Real time PCR analysis was performed on isolated RNA samples using above described primers.
The observed increase in PAIGB expression in bone treated with PTH is dose-dependent (FIG. 10B). OVX rats with established osteopenia were treated with increasing concentration of human PTH (1-34): 5, 10, 20, 40 and 80 μg/kg of body weight for 8 days with one daily injection. Six hours after last injection animals were scarified and bone samples were harvested for RNA isolation as described in Experimental Procedure section.

PAIGB expression [2] = test: Northern blot of PAIGB in rat tibia RNA; details: intermittent PTH
Method: Isolated RNA was run on 1.2% agorase gel in 1×MOPS ((3-[N-morpholino]propanesulfonic acid) buffer) and formaldehyde. RNA gel was run in 1×MOPS (Sigma). RNA was transferred on nylon membrane (S&S) using Turbo-blot according to instruction provided by manufacturer (S&S). RADE fragment(s) as well as GAPDH or ciclophylin were labeled using random prime labeling kit (Gibco, BRL) according to provided instructions. Hybridization with labeled probes was performed using ExpressHyb (Sigma), at 68° C. over night. Blots were washed 2 times at room temperature for 15 min in low stringency buffer (2×SSC, 0.1% SDS), and 1 time at 65° C. for 15 min in […]. Blots were exposed over night using Kodak film.
In order to confirm the results from RADE experiments data, Northern blot analysis was done on RNA samples from rat tibia after intermittent and continuous PTH injections. […] In addition a multiple tissue northern blot was performed on the samples provided by commercially available blots. The northern blot analysis indicated very abundant expression of PAIGB in brain, but little expression in heart and lung.

human PTH (1-34)
PAIGB mRNA expression in calvariae (in situ hybridization) (PAIGB mRNA): induced in osteoblastic cells adjacent to the bone surface in the periosteum | increase of PAIGB expression in bone (PAIGB expression [1]; 40 μg/kg, one daily injection, 8 days, OVX rats): 10 fold | increase of PAIGB expression in bone (PAIGB expression [1]; 80 μg/kg, one daily injection, 8 days, OVX rats): 20 fold | effect on PAIGB expression in bone (PAIGB expression [1]; 5, 10 and 20 μg/kg, one daily injection, 8 days, OVX rats): did not have any effect | PAIGB expression over vehicle treated rats (PAIGB expression [1]; 4 days of intermittent injection): 20 fold | effect on PAIGB expression in tibia (PAIGB expression [1]; intermittent 40 μg/kg, days 4 and 8, compared with day 2): at the same magnitude | increase of PAIGB expression in tibia (PAIGB expression [1]; intermittent 40 μg/kg, two days): ~20 fold | increase of PAIGB expression vs vehicle (phosphor-imager, Northern blot) (PAIGB expression [2]): 36 fold
